Read-outs that look alike come from different tables or passages of the source.
Key:
[1] = Pharmacokinetic study in rats (oral gavage and tail vein injection, plasma LC-MS/MS); format: in vivo; details: rat; for Cmax: read-out: Cmax
Experimental: Male SPF-grade SD rats (Beijing Vital River Laboratory Animal Technology Co., Ltd.) with a body weight range of 200 to 250 g were used. After acclimatization, the rats were administered a clear solution of the compound of the present disclosure via oral gavage (Po, fasted overnight before administration with free access to water, food returned 4 hours after administration) and tail vein injection (Iv, free access to food and water throughout the administration). Blood samples were collected from the orbital venous plexus/jugular vein of rats at specified time points after administration (blood collection time points for the PO group: 0.167, 0.5, 1, 2, 4, 6, 8, and 24 h; for the IV group: 0.033, 0.167, 1, 2, 4, 6, 8, and 24 h). The concentration of compounds in plasma was detected by LC-MS/MS (AB SCIEX Qtrap4500). Data were analyzed using WinNonlin (version 5.2.1 Pharsight, Mountain View, CA) with a non-compartmental model to obtain PK parameters (including Cmax, C0, Tmax, AUClast, AUCinf, T1/2, etc.).
Table 3: Results of in vivo pharmacokinetic studies of compounds of the present disclosure in rats
The vehicle for the Po group compound was 5% DMSO + 5% ethanol + 60% PEG400 + 30% normal saline; the vehicle for the Iv group compound was 10% ethanol + 20% pure water + 70% PEG400 solution.

[2] = molecular target: hLPAR1 (human lysophosphatidic acid receptor 1, Accession No.: NM_001401.4) (Homo sapiens, UniProt Q92633); test: cell-based; details: Table 1; FLIPR method, CHO-K1 cells overexpressing hLPAR1; read-out: LPAR1 inhibitory activity IC50
hLPAR1 (human lysophosphatidic acid receptor 1, Accession No.: NM_001401.4), sequence (Q92633 whole entry): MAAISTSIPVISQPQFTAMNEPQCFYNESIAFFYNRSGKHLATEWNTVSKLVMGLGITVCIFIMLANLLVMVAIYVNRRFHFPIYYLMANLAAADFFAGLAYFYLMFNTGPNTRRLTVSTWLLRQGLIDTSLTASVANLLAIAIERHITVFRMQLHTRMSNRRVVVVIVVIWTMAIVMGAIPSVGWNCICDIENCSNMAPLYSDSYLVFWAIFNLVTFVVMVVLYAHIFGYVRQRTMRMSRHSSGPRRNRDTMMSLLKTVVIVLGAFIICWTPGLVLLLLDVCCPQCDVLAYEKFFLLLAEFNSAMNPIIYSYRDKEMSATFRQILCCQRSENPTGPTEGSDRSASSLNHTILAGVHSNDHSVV
Experimental: The antagonist properties of the compounds in the present disclosure were determined using the FLIPR (Fluorometric Imaging Plate Reader) method in CHO-K1 cells (Chinese Hamster Ovary cells K1, ATCC) overexpressing hLPAR1 (human lysophosphatidic acid receptor 1, Accession No.: NM_001401.4).
CHO-K1 cells stably expressing hLPAR1 were placed in a cell culture incubator at 37°C with 5% CO2 and cultured in F-12 medium containing 10% FBS (fetal bovine serum, Gibco, 10099-141), 1% penicillin-streptomycin (Gibco, 15140-122), and 0.4 mg/mL Hygromycin B (Gibco, 10687010). 18-24 hours before the FLIPR experiment, the cells were seeded into a 96-well plate at a density of 250,000 cells/mL (25,000 cells/well) and incubated overnight in the cell culture incubator. On the day of the experiment, the medium was removed, and the cells were washed with FLIPR buffer (2.5 mM probenecid (Thermo, P36400), 1.3 mM CaCl2, 3.3 mM Na2CO3, 1 mM MgSO4, 20 mM HEPES (Invitrogen, 15630080), 1× HBSS (Invitrogen, 14065056), 0.1% BSA (BioSharp, 70080030)). 75 µL of […] Fluo-4 AM fluorescent dye (Thermo, F14202) was added to each well and incubated for 1.0 hour at 37°C for dye loading. The 96-well plate was then washed once with buffer, and 50 µL of buffer containing the test compound or vehicle was added to each well, followed by incubation at room temperature for 30 min. The cell plate was then placed into the FLIPR for baseline fluorescence measurement (excitation wavelength at 485 nm, emission wavelength at 525 to 535 nm). Subsequently, 50 µL/well of agonist (final concentration 1 µM oleoyl-L-α-lysophosphatidic acid sodium salt (Sigma, L7260)) or vehicle (ultrapure water) was added, and fluorescence values were measured at 1-second intervals for 2 min. Finally, the output fluorescence counts were analyzed using GraphPad Prism 9.0 software log(inhibitor) vs. response--Variable slope (four parameters) equation to calculate IC50 values.
Table 1: Inhibitory activity data of compounds against LPAR1

| Compound | IC50 [2] [nM] | half-life ([1]; male, SD, iv, 1 mg/kg) [h] | half-life ([1]; male, SD, po, 1 mg/kg) [h] | AUC(0-t) ([1]; male, SD rats, Iv, 1 mg/kg) [ng·h/mL] | Cmax ([1]; male, SD rats, Iv, 1 mg/kg) [ng/mL] | AUC(0-t) ([1]; male, SD rats, Po, 1 mg/kg) [ng·h/mL] | Cmax ([1]; male, SD rats, Po, 1 mg/kg) [ng/mL] | other results |
| --- | --- | --- | --- | --- | --- | --- | --- | --- |
| CCCc1ccnc(NCc2c(-c3ccc(C#CC4(CC(=O)O)CC4)c(C)n3)nnn2C)n1 [compound 365] |  |  |  |  |  |  |  | AUC(0-t) ([1]; SD rats, Iv, 1 mg/kg): 1200 to 3000 ng·h/mL; half-life ([1]; SD rats, Iv, 1 mg/kg): 7.21 h; Cmax ([1]; SD rats, Iv, 1 mg/kg): 800 to 5000 ng/mL; AUC(0-t) ([1]; SD rats, Po, 1 mg/kg): 1200 to 3000 ng·h/mL; half-life ([1]; SD rats, Po, 1 mg/kg): 5.98 h; Cmax ([1]; SD rats, Po, 1 mg/kg): 200 to 800 ng/mL |
| CCCc1ccnc(OCc2c(-c3ccc(C#CC4(CC(=O)O)CC4)c(C)n3)nnn2C)n1 [compound 217, 2-(1-((2-methyl-6-(1-methyl-5-(((4-propylpyrimidin-2-yl)oxy)methyl)-1H-1,2,3-triazol-4-yl)pyridin-3-yl)ethynyl)cyclopropyl)acetic acid] | 26.6 |  |  |  |  |  |  |  |
| Cc1nc(-c2nnn(C)c2COC(=O)N(C)CC2CCC(F)(F)C2)ccc1C#CC1(CC(=O)O)CC1 (stereo not shown) [compound 094] | 30.1 |  |  |  |  |  |  |  |
| Cc1nc(-c2nnn(C)c2NC(=O)O[C@H](C)c2ccccc2)ccc1C#C[C@@H]1CCCC[C@H]1C(=O)O (mixture of isomers) [027-B, trans-2-((2-methyl-6-(1-methyl-5-((((R)-1-phenylethoxy)carbonyl)amino)-1H-1,2,3-triazol-4-yl)pyridin-3-yl)ethynyl)cyclohexane-1-carboxylic acid] | 49.2 |  |  |  |  |  |  |  |
| Cc1nc(-c2nnn(C)c2COC(=O)N(C)CC2CC2C)ccc1C#CC1(CC(=O)O)CC1 (stereo not shown) [compound 073] | 79.1 |  |  |  |  |  |  |  |
| CCC(F)(F)[C@@H](C)OC(=O)Nc1c(-c2ccc(C#CC3(CC(=O)O)CC(OC)C3)c(C)n2)nnn1C (stereo partly shown) [compound 279] |  |  |  |  |  |  |  | AUC(0-t) ([1]; SD rats, Iv, 1 mg/kg): 5000 to 10000 ng·h/mL; half-life ([1]; SD rats, Iv, 1 mg/kg): 5.82 h; Cmax ([1]; SD rats, Iv, 1 mg/kg): 5000 to 8000 ng/mL; AUC(0-t) ([1]; SD rats, Po, 1 mg/kg): 5000 to 10000 ng·h/mL; half-life ([1]; SD rats, Po, 1 mg/kg): 6.39 h; Cmax ([1]; SD rats, Po, 1 mg/kg): 800 to 5000 ng/mL |
| Cc1nc(-c2nnn(C)c2NC(=O)OC(C)CCCF)ccc1C#CC1(CC(=O)O)CC1 (single isomer, unassigned) [280-B] |  |  |  |  |  |  |  | AUC(0-t) ([1]; in vivo, SD rats, Iv, 1 mg/kg): 5000 to 10000 ng·h/mL; Cmax ([1]; in vivo, SD rats, Iv, 1 mg/kg): 800 to 5000 ng/mL; AUC(0-t) ([1]; in vivo, SD rats, Po, 3 mg/kg): 10000 to 20000 ng·h/mL; Cmax ([1]; in vivo, SD rats, Po, 3 mg/kg): 800 to 5000 ng/mL; half-life ([1]; in vivo, iv, 1 mg/kg, SD rats): 6.47 h; half-life ([1]; in vivo, po, 3 mg/kg, SD rats): 6.57 h |

Continued, in another order:

| IC50 [2] [nM] | half-life ([1]; male, SD, iv, 1 mg/kg) [h] | half-life ([1]; male, SD, po, 1 mg/kg) [h] | AUC(0-t) ([1]; male, SD rats, Iv, 1 mg/kg) [ng·h/mL] | Cmax ([1]; male, SD rats, Iv, 1 mg/kg) [ng/mL] | AUC(0-t) ([1]; male, SD rats, Po, 1 mg/kg) [ng·h/mL] | Cmax ([1]; male, SD rats, Po, 1 mg/kg) [ng/mL] | Compound | other results |
| --- | --- | --- | --- | --- | --- | --- | --- | --- |
|  | 6.65 | 5.53 | 1200 to 3000 | 800 to 5000 | 1200 to 3000 | 200 to 800 | CCCN(C)C(=O)OCc1c(-c2ccc(C#C[C@@H]3CCC[C@H]3C(=O)O)c(C)n2)nnn1C [compound 355] |  |
|  | 7.36 | 6.9 | 5000 to 10000 | 800 to 5000 | 5000 to 10000 | 200 to 800 | Cc1nc(-c2nnn(C)c2NC(=O)OC(C)CCC(F)F)ccc1C#CC1(CC(=O)O)CC1 (stereo not shown) [compound 283, 2-(1-((6-(5-((((5,5-difluoropentan-2-yl)oxy)carbonyl)amino)-1-methyl-1H-1,2,3-triazol-4-yl)-2-methylpyridin-3-yl)ethynyl)cyclopropyl)acetic acid] |  |
|  | 3.46 | 3.49 | 5000 to 10000 | 800 to 5000 | 10000 to 20000 | 800 to 5000 | Cc1nc(-c2nnn(C)c2NC(=O)O[C@H](C)c2ccccc2)ccc1C#C[C@@H]1C[C@H]1C(=O)O [compound 295] |  |
|  | 6.07 | 4.58 | 1200 to 3000 | 800 to 5000 | 1200 to 3000 | 200 to 800 | Cc1nc(-c2nnn(C)c2COC(=O)N(C)CCC(C)(F)F)ccc1C#C[C@@H]1CCC[C@H]1C(=O)O (racemic) [compound 282, trans-2-((6-(5-((((3,3-difluorobutyl)(methyl)carbamoyl)oxy)methyl)-1-methyl-1H-1,2,3-triazol-4-yl)-2-methylpyridin-3-yl)ethynyl)cyclopentane-1-carboxylic acid] |  |

Source: patent EP4755881A1 (Wuhan Createrna Science and Technology Co., Ltd., priority 2023, dated 2025)
